# In the supplement of paper PMC10307832:
# Legend:
# Experiment in all cases: relative viability (nuclei count vs DMSO), 5 days (fraction); higher = more cells survive
# HCC-366 = test system: HCC-366
# How it was run: (§1)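 Lung cancer cell lines, seeded in 1536-well plates, were treated the following day by pin tool with a single drug or with five library-drug doses (not always all listed) in √10 steps on top of a fixed anchor-drug dose. Cells were fixed and nuclei stained in one step after 5 days, and nuclei were counted. Relative viability is the nuclei count for treated wells divided by that for vehicle wells, reported as medians of duplicate plates.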
# NCI-H460 = test system: NCI-H460
# How it was run: as §1
# NCI-H647 = test system: NCI-H647
# How it was run: as §1
# PC-14 = test system: PC-14
# How it was run: as §1
# NCI-H441 = test system: NCI-H441
# How it was run: as §1
# NCI-H1755 = test system: NCI-H1755
# How it was run: as §1
# NCI-H2347 = test system: NCI-H2347
# How it was run: as §1
# NCI-H596 = test system: NCI-H596
# How it was run: as §1
# UMC-11 = test system: UMC-11
# How it was run: as §1
# NCI-H2023 = test system: NCI-H2023
# How it was run: as §1
# NCI-H2405 = test system: NCI-H2405
# How it was run: as §1
# NCI-H1437 = test system: NCI-H1437
# How it was run: as §1
# A-427 = test system: A-427
# How it was run: as §1
# H3255 = test system: H3255
# How it was run: as §1
# PC-3 [JPC-3] = test system: PC-3 [JPC-3]
# How it was run: as §1
# LCLC-103H = test system: LCLC-103H
# How it was run: as §1
# HCC-44 = test system: HCC-44
# How it was run: as §1
# ABC-1 = test system: ABC-1
# How it was run: as §1
# NCI-H3122 = test system: NCI-H3122
# How it was run: as §1
# NCI-H23 = test system: NCI-H23
# How it was run: as §1
# LXF-289 = test system: LXF-289
# How it was run: as §1
# NCI-H2009 = test system: NCI-H2009
# How it was run: as §1
smiles,measurement,setting,value
COCC1(CO)C(=O)C2CCN1CC2 (stereo not drawn) [PRIMA-1MET] + Cc1nc(NC(=O)N2CCC[C@H]2C(N)=O)sc1-c1ccnc(C(C)(C)C(F)(F)F)c1 [Alpelisib] (partner 2 µM),relative viability,HCC-366; first compound 0.2 µM,0.865
same,relative viability,HCC-366; first compound 0.6325 µM,0.37
same,relative viability,HCC-366; first compound 6.325 µM,0.376
same,relative viability,HCC-366; first compound 20 µM,0.0102
same,relative viability,NCI-H460; first compound 0.2 µM,0.571
same,relative viability,NCI-H460; first compound 0.6325 µM,0.358
same,relative viability,NCI-H460; first compound 2 µM,0.411
same,relative viability,NCI-H460; first compound 6.325 µM,0.0066
same,relative viability,NCI-H460; first compound 20 µM,0.0038
same,relative viability,NCI-H647; first compound 0.2 µM,1.33
same,relative viability,NCI-H647; first compound 0.6325 µM,1.04
same,relative viability,NCI-H647; first compound 2 µM,1.13
same,relative viability,NCI-H647; first compound 6.325 µM,1.09
same,relative viability,NCI-H647; first compound 20 µM,0.892
same,relative viability,PC-14; first compound 0.2 µM,0.839
same,relative viability,PC-14; first compound 0.6325 µM,1.03
same,relative viability,PC-14; first compound 2 µM,0.926
same,relative viability,PC-14; first compound 6.325 µM,1.07
same,relative viability,PC-14; first compound 20 µM,0.905
same,relative viability,NCI-H441; first compound 0.2 µM,0.648
same,relative viability,NCI-H441; first compound 0.6325 µM,0.792
same,relative viability,NCI-H441; first compound 2 µM,0.762
same,relative viability,NCI-H441; first compound 6.325 µM,0.816
same,relative viability,NCI-H441; first compound 20 µM,0.118
same,relative viability,NCI-H1755; first compound 0.2 µM,0.974
same,relative viability,NCI-H1755; first compound 0.6325 µM,0.891
same,relative viability,NCI-H1755; first compound 2 µM,0.864
same,relative viability,NCI-H1755; first compound 6.325 µM,0.952
same,relative viability,NCI-H1755; first compound 20 µM,0.892
same,relative viability,NCI-H2347; first compound 0.2 µM,1.08
same,relative viability,NCI-H2347; first compound 0.6325 µM,1.01
same,relative viability,NCI-H2347; first compound 2 µM,0.602
same,relative viability,NCI-H2347; first compound 6.325 µM,1.08
same,relative viability,NCI-H2347; first compound 20 µM,0.923
same,relative viability,NCI-H596; first compound 0.2 µM,0.539
same,relative viability,NCI-H596; first compound 0.6325 µM,0.446
same,relative viability,NCI-H596; first compound 2 µM,0.586
same,relative viability,NCI-H596; first compound 6.325 µM,0.673
same,relative viability,NCI-H596; first compound 20 µM,0.469
same,relative viability,UMC-11; first compound 0.2 µM,1.03
same,relative viability,UMC-11; first compound 0.6325 µM,0.824
same,relative viability,UMC-11; first compound 2 µM,1.07
same,relative viability,UMC-11; first compound 6.325 µM,1.13
same,relative viability,UMC-11; first compound 20 µM,0.899
same,relative viability,NCI-H2023; first compound 0.2 µM,0.7
same,relative viability,NCI-H2023; first compound 0.6325 µM,0.69
same,relative viability,NCI-H2023; first compound 2 µM,0.564
same,relative viability,NCI-H2023; first compound 6.325 µM,0.615
same,relative viability,NCI-H2023; first compound 20 µM,0.568
same,relative viability,NCI-H2405; first compound 0.2 µM,0.517
same,relative viability,NCI-H2405; first compound 0.6325 µM,0.896
same,relative viability,NCI-H2405; first compound 6.325 µM,0.625
same,relative viability,NCI-H2405; first compound 20 µM,0.0731
same,relative viability,NCI-H1437; first compound 0.2 µM,1
same,relative viability,NCI-H1437; first compound 0.6325 µM,0.972
same,relative viability,NCI-H1437; first compound 2 µM,1.01
same,relative viability,NCI-H1437; first compound 6.325 µM,1.12
same,relative viability,NCI-H1437; first compound 20 µM,0.926
same,relative viability,A-427; first compound 0.2 µM,1.04
same,relative viability,A-427; first compound 0.6325 µM,1.05
same,relative viability,A-427; first compound 2 µM,0.9
same,relative viability,A-427; first compound 6.325 µM,1.04
same,relative viability,A-427; first compound 20 µM,1.07
same,relative viability,H3255; first compound 0.2 µM,0.845
same,relative viability,H3255; first compound 0.6325 µM,0.547
same,relative viability,H3255; first compound 2 µM,0.574
same,relative viability,H3255; first compound 6.325 µM,0.793
same,relative viability,H3255; first compound 20 µM,0.666
same,relative viability,PC-3 [JPC-3]; first compound 0.2 µM,1.1
same,relative viability,PC-3 [JPC-3]; first compound 0.6325 µM,0.942
same,relative viability,PC-3 [JPC-3]; first compound 2 µM,1.02
same,relative viability,PC-3 [JPC-3]; first compound 6.325 µM,1.07
same,relative viability,PC-3 [JPC-3]; first compound 20 µM,1.06
same,relative viability,LCLC-103H; first compound 0.2 µM,1.1
same,relative viability,LCLC-103H; first compound 0.6325 µM,0.966
same,relative viability,LCLC-103H; first compound 2 µM,0.793
same,relative viability,LCLC-103H; first compound 6.325 µM,1.09
same,relative viability,LCLC-103H; first compound 20 µM,0.935
same,relative viability,HCC-44; first compound 0.2 µM,0.87
same,relative viability,HCC-44; first compound 0.6325 µM,0.647
same,relative viability,HCC-44; first compound 2 µM,0.673
same,relative viability,HCC-44; first compound 6.325 µM,0.801
same,relative viability,HCC-44; first compound 20 µM,0.737
same,relative viability,ABC-1; first compound 0.2 µM,1.07
same,relative viability,ABC-1; first compound 0.6325 µM,1.1
same,relative viability,ABC-1; first compound 2 µM,1.11
same,relative viability,ABC-1; first compound 6.325 µM,1.04
same,relative viability,ABC-1; first compound 20 µM,0.479
same,relative viability,NCI-H3122; first compound 0.2 µM,0.696
same,relative viability,NCI-H3122; first compound 0.6325 µM,0.683
same,relative viability,NCI-H3122; first compound 2 µM,0.844
same,relative viability,NCI-H3122; first compound 6.325 µM,0.628
same,relative viability,NCI-H3122; first compound 20 µM,0.684
same,relative viability,NCI-H23; first compound 0.2 µM,0.793
same,relative viability,NCI-H23; first compound 0.6325 µM,0.583
same,relative viability,NCI-H23; first compound 2 µM,0.555
same,relative viability,NCI-H23; first compound 6.325 µM,0.669
same,relative viability,NCI-H23; first compound 20 µM,0.111
same,relative viability,LXF-289; first compound 0.2 µM,1.13
same,relative viability,LXF-289; first compound 0.6325 µM,0.973
same,relative viability,LXF-289; first compound 2 µM,1.08
same,relative viability,LXF-289; first compound 6.325 µM,1.04
same,relative viability,LXF-289; first compound 20 µM,0.939
same,relative viability,NCI-H2009; first compound 0.2 µM,1.12
same,relative viability,NCI-H2009; first compound 0.6325 µM,1.15
same,relative viability,NCI-H2009; first compound 2 µM,1.23
same,relative viability,NCI-H2009; first compound 6.325 µM,1.13
same,relative viability,NCI-H2009; first compound 20 µM,0.325
